# Laboratory results: PubChem BioAssay (NCI)
# Values joined by “and” are separate entries in the source; they are usually repeats but may differ in a detail not shown here. Equal values may be shown once.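 Tested at 5 concentrations; 48 h exposure; 96-well plates; endpoints linearly interpolated, else capped at highest concentration. Here, GI50 denotes the concentration required for 50% inhibition of growth. TGI marks complete inhibition of growth.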
# How the values were obtained:
# Assay in all cases: growth of human tumour cells (NCI), 48 h
# NCI/ADR-RES ovarian = tested on: NCI/ADR-RES ovarian
# UACC-62 melanoma = tested on: UACC-62 melanoma
# SK-MEL-2 melanoma = tested on: SK-MEL-2 melanoma
# RXF 393 renal = tested on: RXF 393 renal
# HCT-116 colon = tested on: HCT-116 colon
# KM12 colon = tested on: KM12 colon
# SK-OV-3 ovarian = tested on: SK-OV-3 ovarian
# SNB-75 CNS = tested on: SNB-75 CNS
# A549 NSCLC = tested on: A549 NSCLC
# OVCAR-4 ovarian = tested on: OVCAR-4 ovarian
SMILES,GI50 (NCI/ADR-RES ovarian),TGI (NCI/ADR-RES ovarian),GI50 (UACC-62 melanoma),TGI (UACC-62 melanoma),GI50 (SK-MEL-2 melanoma),TGI (SK-MEL-2 melanoma),GI50 (RXF 393 renal),TGI (RXF 393 renal),GI50 (HCT-116 colon),TGI (HCT-116 colon),GI50 (KM12 colon),TGI (KM12 colon),GI50 (SK-OV-3 ovarian),TGI (SK-OV-3 ovarian),GI50 (SNB-75 CNS),TGI (SNB-75 CNS),GI50 (A549 NSCLC),TGI (A549 NSCLC),GI50 (OVCAR-4 ovarian),TGI (OVCAR-4 ovarian)
CSc1ccc2c(c1)C(N1CCN(C)CC1)Cc1ccccc1S2 (stereo not given),1.96 µM,19 µM and 4.58 µM,1.8 µM,4.2 µM and 3.3 µM,1.95 µM,7.82 µM and 3.8 µM,1.54 µM,14 µM and 3.39 µM,1.98 µM,16 µM and 4.03 µM,1.83 µM,7.49 µM and 3.55 µM,2.01 µM,27.3 µM and 4.25 µM,1.49 µM,3.15 µM and 3.87 µM,2.17 µM,24.2 µM and 5.72 µM,2.6 µM,9.66 µM and 9.89 µM
CN1CSC(=S)N(Cc2ccccc2)C1,28.2 µM,> 100 µM,13.4 µM,36 µM,4.64 µM,18.2 µM,11.7 µM,24 µM,4.49 µM,15.6 µM,1.87 µM,4.19 µM,> 100 µM,> 100 µM,5.81 µM,65.9 µM,30.2 µM,> 100 µM,14.2 µM,27.8 µM
N#CC1c2ccccc2C=CN1C(=O)N(c1ccccc1)c1ccccc1 (stereo not given),5.52 µM,34 µM,2.13 µM,5.57 µM,3.97 µM,13.6 µM,1.73 µM,3.2 µM,2.05 µM,4.35 µM,6.38 µM,19.3 µM,16.5 µM,31.3 µM,6.3 µM,21 µM,19.7 µM,51.8 µM,2.99 µM,8.29 µM
N=c1c2c(=N)n3c(nc2nc2n1-c1ccccc1Sc1ccccc1-2)sc1cc(Cl)ccc13,1.84 µM,44.6 µM,1.16 µM,9.44 µM,1.44 µM,13.9 µM,2.46 µM,9.52 µM,1.86 µM,> 100 µM,2.34 µM,12.6 µM,4.42 µM,37 µM,1.83 µM,65.4 µM,2.25 µM,> 100 µM,2.78 µM,> 100 µM
CCn1c(-c2nonc2N)nc2cncc(C(=O)N3CC[C@H](N)C3)c21,> 25 µM,> 25 µM,> 25 µM,> 25 µM,> 25 µM,> 25 µM,> 6.57 µM,> 25 µM,9.9 µM,> 25 µM,> 25 µM,> 25 µM,> 25 µM,> 25 µM,0.319 µM,> 7.84 µM,7.29 µM,> 25 µM,> 25 µM,> 25 µM
Cn1c(-c2c(N)n(CCCN3CCOCC3)c3nc(C#N)c(C#N)nc23)nc2ccccc21,> 28.3 µM,> 100 µM,> 34.5 µM,> 100 µM,45.3 µM,> 100 µM,16.4 µM,45 µM,4.03 µM,> 33.4 µM,12.4 µM,31.4 µM,51.7 µM,> 100 µM,4.34 µM,25 µM,22.5 µM,46.3 µM,17.9 µM,> 100 µM
CN(CC(=O)N(Cc1ccc(C2CCCCC2)cc1)c1ccc(C(=O)O)cc1)S(=O)(=O)c1c(F)c(F)c(F)c(F)c1F,2.14 µM,5.26 µM,1.92 µM,3.46 µM,2.06 µM,3.68 µM,1.93 µM,3.37 µM,1.93 µM,3.68 µM,2.94 µM,9.01 µM,1.93 µM,3.8 µM,1.61 µM,2.96 µM,6.59 µM,21.6 µM,1.81 µM,3.48 µM
Cn1ncc(Cl)c1-c1cc(C(=O)N[C@H](CN)Cc2ccc(F)c(F)c2)oc1Cl,10.2 µM and 2.94 µM,24.5 µM and > 10 µM,0.625 µM and 0.494 µM,3.04 µM and 2.65 µM,2.44 µM and 1.77 µM,6.82 µM and 4.72 µM,0.0361 µM and 0.0338 µM,0.534 µM and 0.705 µM,1.67 µM and 1.76 µM,8.09 µM and > 6.83 µM,0.59 µM and 0.255 µM,6.73 µM and 4.43 µM,0.232 µM and 0.259 µM,3.75 µM and 5.04 µM,0.0508 µM and 0.027 µM,1.4 µM and 0.846 µM,1.57 µM and 1.2 µM,15 µM and > 10 µM,4.06 µM and 5.4 µM,17.2 µM and > 10 µM
